Experimental data published in BindingDB's records for patent US12509446 (Rottapharm Biotech, 2025).

Experiments:
[1] = target: Tyrosine-protein kinase Fyn (Homo sapiens, UniProt P06241); assay: In Vitro Kinase Activity Assay
Procedure: Table 11: The Fyn kinase inhibitory activity of representative examples of compounds of Formula (1) was evaluated by Z′-LYTE™ Kinase Assay Platform (Invitrogen). Compounds were evaluated towards active Fyn (full length active, molecular weight 87.1 kDa; Invitrogen). […] Samples representing the 0% inhibition (or total enzymatic activity) were in the presence of compound diluent (1% DMSO final in Reaction Buffer 50 mMHepes, 10 mM MgCl2, 1 mM EGTA, 0.01% Brij-35, pH 7.5). The kinase reaction was carried out in a total volume of 10 μl, for 60 minutes at 25° C. The 0% Phosphorylation (i.e. no ATP) and 100% Phosphorylation Assay Controls, included in each plate, allowed to calculate the percent phosphorylation achieved in the specific reaction well. Results are expressed as percentage of inhibition and the IC50 values were calculated by non-linear curve fitting using GraphPad™ Prism software (version 6 for Windows).

[2] = target: Vascular endothelial growth factor receptor 2 (Homo sapiens, UniProt P35968); assay: In Vitro Kinase Activity Assay
Procedure: Table 12: The VEGFR2 kinase inhibitory activity of representative examples of compounds of Formula (I) assays was evaluated in Eurofins Cerep (France). The concentration range of the inhibitors under investigation was from 10−8 M up to 10−5 M final concentration. Some compounds were re-tested in a concentration-range starting from 10−9 M. The results are expressed as a percent of control activity (in the absence of test compound) and the IC50 values were determined by non-linear regression analysis of the inhibition/concentration curves generated with mean replicate values.

Chain of Vascular endothelial growth factor receptor 2 (P35968 whole entry): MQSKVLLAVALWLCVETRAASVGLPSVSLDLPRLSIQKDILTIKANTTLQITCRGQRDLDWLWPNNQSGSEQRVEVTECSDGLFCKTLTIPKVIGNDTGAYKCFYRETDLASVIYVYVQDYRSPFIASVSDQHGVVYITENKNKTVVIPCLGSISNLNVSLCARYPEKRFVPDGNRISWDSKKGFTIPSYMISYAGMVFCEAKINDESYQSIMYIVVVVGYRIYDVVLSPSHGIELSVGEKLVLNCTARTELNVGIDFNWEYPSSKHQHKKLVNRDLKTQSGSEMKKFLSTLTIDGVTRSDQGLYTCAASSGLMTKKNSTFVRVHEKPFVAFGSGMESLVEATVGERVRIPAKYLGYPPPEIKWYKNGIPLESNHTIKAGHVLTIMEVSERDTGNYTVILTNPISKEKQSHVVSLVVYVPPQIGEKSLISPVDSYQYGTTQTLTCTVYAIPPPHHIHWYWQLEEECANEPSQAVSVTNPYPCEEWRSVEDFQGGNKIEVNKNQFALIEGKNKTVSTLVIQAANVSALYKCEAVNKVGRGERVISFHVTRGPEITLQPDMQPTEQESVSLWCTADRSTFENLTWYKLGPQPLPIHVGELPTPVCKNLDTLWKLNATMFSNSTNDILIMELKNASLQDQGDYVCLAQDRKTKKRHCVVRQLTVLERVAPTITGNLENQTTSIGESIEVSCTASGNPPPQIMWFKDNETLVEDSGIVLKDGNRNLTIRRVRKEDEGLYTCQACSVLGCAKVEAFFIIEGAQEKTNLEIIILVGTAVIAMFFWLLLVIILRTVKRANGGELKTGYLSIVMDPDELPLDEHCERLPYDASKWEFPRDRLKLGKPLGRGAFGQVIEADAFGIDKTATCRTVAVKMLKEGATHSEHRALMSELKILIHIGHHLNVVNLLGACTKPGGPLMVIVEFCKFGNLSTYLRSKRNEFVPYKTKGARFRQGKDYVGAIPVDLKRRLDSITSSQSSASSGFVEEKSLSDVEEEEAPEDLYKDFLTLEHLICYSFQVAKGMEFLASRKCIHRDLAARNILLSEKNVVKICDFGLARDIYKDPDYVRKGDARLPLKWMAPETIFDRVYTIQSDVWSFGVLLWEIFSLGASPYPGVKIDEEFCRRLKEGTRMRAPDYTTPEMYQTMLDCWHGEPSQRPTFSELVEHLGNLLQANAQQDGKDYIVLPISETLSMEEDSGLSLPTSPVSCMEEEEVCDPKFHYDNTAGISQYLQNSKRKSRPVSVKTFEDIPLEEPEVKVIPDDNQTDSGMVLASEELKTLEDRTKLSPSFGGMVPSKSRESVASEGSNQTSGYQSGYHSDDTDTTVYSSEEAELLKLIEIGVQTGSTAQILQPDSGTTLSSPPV
Chain of Tyrosine-protein kinase Fyn (P06241 whole entry): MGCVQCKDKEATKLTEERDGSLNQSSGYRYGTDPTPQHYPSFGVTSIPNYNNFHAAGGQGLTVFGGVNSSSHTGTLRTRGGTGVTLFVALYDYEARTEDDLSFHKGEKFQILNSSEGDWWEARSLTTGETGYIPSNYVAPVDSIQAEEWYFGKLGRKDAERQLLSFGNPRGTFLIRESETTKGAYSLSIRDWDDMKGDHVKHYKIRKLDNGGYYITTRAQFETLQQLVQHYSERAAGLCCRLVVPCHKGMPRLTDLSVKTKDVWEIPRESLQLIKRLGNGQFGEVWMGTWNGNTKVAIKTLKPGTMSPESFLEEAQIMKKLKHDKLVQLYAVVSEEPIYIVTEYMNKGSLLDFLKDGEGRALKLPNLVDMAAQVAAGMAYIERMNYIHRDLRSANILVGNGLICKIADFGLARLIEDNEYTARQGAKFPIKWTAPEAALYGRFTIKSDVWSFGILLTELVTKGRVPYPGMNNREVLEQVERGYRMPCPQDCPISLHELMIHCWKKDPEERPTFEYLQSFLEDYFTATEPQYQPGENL

IC50 [1] [nM]	IC50 [2] [nM]	SMILES
15	< 10	CCN1CCN(c2cc(Nc3cc(CCc4cc(NC(=O)c5cccc(C(F)(F)F)c5)ccc4F)n[nH]3)nc(C)n2)CC1 [US12509446, Compound 29]
8	< 10	Cc1nc(Nc2cc(CCc3ccc(F)c(NC(=O)c4cccc(C(F)(F)F)c4)c3)n[nH]2)cc(N2CCN(CCO)CC2)n1 [US12509446, Compound 44]
36	< 10	Cc1ccc(NC(=O)c2cccc(S(C)(=O)=O)c2)cc1CCc1cc(Nc2cnccn2)[nH]n1 [US12509446, Compound 1]
10	18	Cc1nc(Nc2cc(CCc3cc(NC(=O)c4cccc(C(F)(F)F)c4)ccc3F)n[nH]2)cc(N2CC(O)C2)n1 [US12509446, Compound 31]
6	< 10	Cc1nc(Nc2cc(CCc3cc(NC(=O)c4cccc(C(F)(F)F)c4)ccc3F)n[nH]2)cc(N2CCN(CCO)CC2)n1 [US12509446, Compound 30]
18	< 10	Cc1nc(Nc2cc(CCc3ccc(F)c(NC(=O)c4cccc(C(F)(F)F)c4)c3)n[nH]2)cc(N2CC(O)C2)n1 [US12509446, Compound 46]
22	< 10	CCN1CCN(c2cc(Nc3cc(CCc4ccc(F)c(NC(=O)c5cccc(C(F)(F)F)c5)c4)n[nH]3)nc(C)n2)CC1 [US12509446, Compound 45]
